Laboratory results: ChEMBL document CHEMBL5665443, “Enzyme Inhibitor Single Concentration assay results for EUbOPEN Chemogenomics Library” (2024)

How the values were obtained:
[1] = target: T1, Endonuclease 8-like 2 (Homo sapiens) (UniProt Q969S2); conditions: Hit No;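 further: fluorescence at 594 nm reports NEIL2 cutting and release of a quenched double-stranded DNA oligo substrate, reduced signal read as inhibition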
T1 sequence (whole entry): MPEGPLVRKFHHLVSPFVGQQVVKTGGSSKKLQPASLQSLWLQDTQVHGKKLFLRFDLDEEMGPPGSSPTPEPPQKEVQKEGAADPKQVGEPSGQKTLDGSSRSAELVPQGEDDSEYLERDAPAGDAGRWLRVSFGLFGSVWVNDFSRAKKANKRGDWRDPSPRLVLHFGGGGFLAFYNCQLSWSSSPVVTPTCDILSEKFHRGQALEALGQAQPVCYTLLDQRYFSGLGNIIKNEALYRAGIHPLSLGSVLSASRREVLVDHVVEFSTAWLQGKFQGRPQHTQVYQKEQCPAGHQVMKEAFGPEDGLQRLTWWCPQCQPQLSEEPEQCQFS
Description: Inhibition of NEIL2 by quantifying inhibition of NEIL2-mediated cleavage and dissociation of quenched duplex DNA oligonucleotides, measured as fluorescence at 594 nm.

[2] = target: N-glycosylase/DNA lyase (Homo sapiens) (UniProt O15527); conditions: Hit No;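 further: OGG1 cleavage of a quenched duplex DNA oligonucleotide, coupled to APE1 for strand incision, read as fluorescence at 594 nm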
Description: Inhibition of OGG1 by quantifying inhibition of OGG1-mediated cleavage and dissociation of quenched duplex DNA oligonucleotides, measured as fluorescence at 594 nm. To generate a functional strand incision and increase turn-over this assay is coupled to APE1.

[3] = target: Endonuclease 8-like 1 (Homo sapiens) (UniProt Q96FI4); conditions: Hit No;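 further: fluorescence at 594 nm from quenched duplex DNA oligonucleotides released by NEIL1 cleavage and strand separation, reported as reduction of this enzyme activity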
Description: Inhibition of NEIL1 by quantifying inhibition of NEIL1-mediated cleavage and dissociation of quenched duplex DNA oligonucleotides, measured as fluorescence at 594 nm.

[4] = target: G/T mismatch-specific thymine DNA glycosylase (Homo sapiens) (UniProt Q13569); conditions: Hit No;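 further: human TDG cleavage of quenched duplex DNA oligonucleotides coupled to APE1, strand release read as fluorescence at 594 nm, inhibition of TDG activity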
Description: Inhibition of TDG by quantifying inhibition of TDG-mediated cleavage and dissociation of quenched duplex DNA oligonucleotides, measured as fluorescence at 594 nm. To generate a functional strand incision and increase turn-over this assay is coupled to APE1.

[5] = target: Uracil-DNA glycosylase (Homo sapiens) (UniProt P13051); conditions: Hit No;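 further: UNG excision on a quenched double-stranded DNA oligo probe, with APE1 added for strand incision and turnover, read as fluorescence at 594 nm as strands separate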
Description: Inhibition of UNG by quantifying inhibition of UNG-mediated cleavage and dissociation of quenched duplex DNA oligonucleotides, measured as fluorescence at 594 nm. To generate a functional strand incision and increase turn-over this assay is coupled to APE1.

[6] = target: Methyl-CpG-binding domain protein 4 (Homo sapiens) (UniProt O95243); conditions: Hit No;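 further: MBD4 activity read as fluorescence at 594 nm from cleavage and release of a quenched duplex DNA oligonucleotide, with APE1 coupled to incise the strand and raise turnover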
Description: Inhibition of MBD4 by quantifying inhibition of MBD4-mediated cleavage and dissociation of quenched duplex DNA oligonucleotides, measured as fluorescence at 594 nm. To generate a functional strand incision and increase turn-over this assay is coupled to APE1.

[7] = target: T2, Single-strand selective monofunctional uracil DNA glycosylase (Homo sapiens) (UniProt Q53HV7); conditions: Hit No;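 further: enzymatic SMUG1 assay coupled with APE1, reading fluorescence at 594 nm released when a quenched double-stranded DNA oligonucleotide substrate is cleaved and separated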
T2 sequence (whole entry): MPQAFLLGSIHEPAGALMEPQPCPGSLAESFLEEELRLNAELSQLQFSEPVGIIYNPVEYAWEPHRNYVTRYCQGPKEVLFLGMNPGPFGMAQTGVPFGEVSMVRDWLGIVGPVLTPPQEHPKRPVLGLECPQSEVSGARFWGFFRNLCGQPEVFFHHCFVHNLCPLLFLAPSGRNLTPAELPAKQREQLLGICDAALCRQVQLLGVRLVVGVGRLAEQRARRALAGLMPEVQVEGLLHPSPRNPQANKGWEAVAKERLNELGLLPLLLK
Description: Inhibition of SMUG1 by quantifying inhibition of SMUG1-mediated cleavage and dissociation of quenched duplex DNA oligonucleotides, measured as fluorescence at 594 nm. To generate a functional strand incision and increase turn-over this assay is coupled to APE1.

[8] = target: T3, Endonuclease III-like protein 1 (Homo sapiens) (UniProt P78549); conditions: Compound Concentration 10.0 uM, Hit No;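 further: enzyme assay tracking NTHL1 cutting and release of a quenched double-stranded DNA oligo substrate, read as fluorescence at 594 nm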
T3 sequence (whole entry): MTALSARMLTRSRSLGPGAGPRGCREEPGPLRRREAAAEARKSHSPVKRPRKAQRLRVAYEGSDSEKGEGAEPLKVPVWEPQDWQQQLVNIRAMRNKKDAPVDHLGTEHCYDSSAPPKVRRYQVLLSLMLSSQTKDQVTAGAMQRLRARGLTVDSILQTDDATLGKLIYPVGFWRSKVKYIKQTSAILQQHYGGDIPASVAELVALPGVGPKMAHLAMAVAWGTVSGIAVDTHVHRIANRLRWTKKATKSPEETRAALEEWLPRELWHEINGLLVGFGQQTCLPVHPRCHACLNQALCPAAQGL
Description: Inhibition of NTHL1 by quantifying inhibition of NTHL1-mediated cleavage and dissociation of quenched duplex DNA oligonucleotides, measured as fluorescence at 594 nm.

Sequence of N-glycosylase/DNA lyase (Homo sapiens) (O15527 whole entry): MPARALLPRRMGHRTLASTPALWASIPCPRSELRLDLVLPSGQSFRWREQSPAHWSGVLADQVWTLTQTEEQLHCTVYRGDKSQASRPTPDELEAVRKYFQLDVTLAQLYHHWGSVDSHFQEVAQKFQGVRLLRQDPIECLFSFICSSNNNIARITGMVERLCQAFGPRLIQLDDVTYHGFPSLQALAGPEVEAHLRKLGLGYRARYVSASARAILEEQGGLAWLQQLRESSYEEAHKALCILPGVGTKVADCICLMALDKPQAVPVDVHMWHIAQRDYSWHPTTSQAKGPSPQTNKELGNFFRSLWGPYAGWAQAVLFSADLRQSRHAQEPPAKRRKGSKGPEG
Sequence of Methyl-CpG-binding domain protein 4 (Homo sapiens) (O95243 whole entry, the tested form may be a part): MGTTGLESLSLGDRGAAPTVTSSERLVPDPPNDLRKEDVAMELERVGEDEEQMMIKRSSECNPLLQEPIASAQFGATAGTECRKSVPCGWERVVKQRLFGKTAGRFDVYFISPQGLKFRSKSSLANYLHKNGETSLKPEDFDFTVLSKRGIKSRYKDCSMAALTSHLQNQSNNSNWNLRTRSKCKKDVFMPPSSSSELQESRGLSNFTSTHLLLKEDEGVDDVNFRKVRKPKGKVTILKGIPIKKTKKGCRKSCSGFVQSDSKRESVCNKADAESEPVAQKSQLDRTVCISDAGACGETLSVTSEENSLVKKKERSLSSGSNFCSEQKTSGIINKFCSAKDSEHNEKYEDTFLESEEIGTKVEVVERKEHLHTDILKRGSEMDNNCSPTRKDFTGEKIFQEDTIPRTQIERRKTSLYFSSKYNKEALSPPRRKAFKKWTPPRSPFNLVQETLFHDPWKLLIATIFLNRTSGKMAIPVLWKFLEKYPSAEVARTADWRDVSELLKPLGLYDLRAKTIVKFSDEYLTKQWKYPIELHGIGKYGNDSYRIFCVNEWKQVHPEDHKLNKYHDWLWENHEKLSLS
Sequence of G/T mismatch-specific thymine DNA glycosylase (Homo sapiens) (Q13569 whole entry): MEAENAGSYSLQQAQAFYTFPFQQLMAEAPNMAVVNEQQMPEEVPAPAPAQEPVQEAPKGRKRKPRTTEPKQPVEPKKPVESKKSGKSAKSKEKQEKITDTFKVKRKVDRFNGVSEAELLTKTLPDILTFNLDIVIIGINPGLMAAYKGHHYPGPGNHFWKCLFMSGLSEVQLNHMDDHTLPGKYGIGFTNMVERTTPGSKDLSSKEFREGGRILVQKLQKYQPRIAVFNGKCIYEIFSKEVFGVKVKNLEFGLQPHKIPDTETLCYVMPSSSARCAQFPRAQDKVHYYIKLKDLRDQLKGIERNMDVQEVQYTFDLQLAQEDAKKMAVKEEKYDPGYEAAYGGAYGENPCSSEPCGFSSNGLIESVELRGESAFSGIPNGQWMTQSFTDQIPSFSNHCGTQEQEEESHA
Sequence of Uracil-DNA glycosylase (Homo sapiens) (P13051 whole entry, the tested form may be a part): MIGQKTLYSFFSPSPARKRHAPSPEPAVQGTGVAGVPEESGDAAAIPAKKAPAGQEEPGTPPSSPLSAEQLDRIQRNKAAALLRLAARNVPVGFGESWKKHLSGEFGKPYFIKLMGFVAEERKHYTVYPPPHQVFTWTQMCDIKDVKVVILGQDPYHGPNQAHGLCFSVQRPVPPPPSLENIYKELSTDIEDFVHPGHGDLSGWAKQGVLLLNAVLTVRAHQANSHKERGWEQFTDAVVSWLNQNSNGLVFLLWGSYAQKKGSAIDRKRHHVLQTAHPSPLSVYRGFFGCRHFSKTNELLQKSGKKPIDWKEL
Sequence of Endonuclease 8-like 1 (Homo sapiens) (Q96FI4 whole entry): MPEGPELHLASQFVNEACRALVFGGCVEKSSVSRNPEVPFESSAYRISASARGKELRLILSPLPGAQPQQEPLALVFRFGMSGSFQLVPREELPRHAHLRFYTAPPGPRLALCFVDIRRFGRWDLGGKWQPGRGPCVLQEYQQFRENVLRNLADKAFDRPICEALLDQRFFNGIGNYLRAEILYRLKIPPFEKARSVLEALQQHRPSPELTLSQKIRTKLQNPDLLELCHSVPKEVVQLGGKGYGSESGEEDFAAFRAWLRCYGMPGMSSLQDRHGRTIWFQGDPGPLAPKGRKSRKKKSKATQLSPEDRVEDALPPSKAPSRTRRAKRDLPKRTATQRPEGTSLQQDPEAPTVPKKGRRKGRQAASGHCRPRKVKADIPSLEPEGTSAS

SMILES	inhibition ([1]; Compound Concentration 1.0 uM)	inhibition ([2]; Compound Concentration 1.0 uM)	inhibition ([3]; Compound Concentration 1.0 uM)	inhibition ([4]; Compound Concentration 1.0 uM)	inhibition ([5]; Compound Concentration 1.0 uM)	inhibition ([6]; Compound Concentration 1.0 uM)	inhibition ([7]; Compound Concentration 1.0 uM)	inhibition ([1]; Compound Concentration 10.0 uM)	inhibition [8]	inhibition ([3]; Compound Concentration 10.0 uM)	inhibition ([4]; Compound Concentration 10.0 uM)	inhibition ([2]; Compound Concentration 10.0 uM)	inhibition ([5]; Compound Concentration 10.0 uM)	inhibition ([6]; Compound Concentration 10.0 uM)	inhibition ([7]; Compound Concentration 10.0 uM)
CS(=O)(=O)NCC[C@H](NC(=O)c1cncc2c1cnn2-c1ccc(F)cc1)c1ccnc(S(C)(=O)=O)c1	0.0213%	-0.705%	-4.23%	50.4%	-0.0979%	64.7%	6.65%	–	–	–	–	–	–	–	–
CC(C)Oc1ccc(-c2nc(-c3cccc4c3CC[C@@H]4NCCO)no2)cc1C#N	–	–	–	–	–	–	–	5.51%	1.19%	-0.352%	-9.98%	–	–	–	–
N#Cc1c(N)nc(SCC(N)=O)c(C#N)c1-c1ccc(OCC2CC2)cc1	–	–	–	–	–	–	–	6.25%	13.7%	5.43%	–	6.64%	–	–	–
CN(C(=O)c1ccccc1)c1cc(N(C)c2ccc3c(c2)CCc2ccc(C(=O)NCCN4CCOCC4)cc2C3=O)ccc1F	–	–	–	–	–	–	–	-1.45%	3.6%	-3.21%	–	-2.17%	–	–	–
Cc1ccc2[nH]c(CNCCCc3ccncc3)cc(=O)c2c1	–	–	–	–	–	–	–	-5.59%	–	-2.56%	35.6%	5.93%	-0.701%	56.8%	7.47%
O=C(NCCN1CCC(n2c(=O)[nH]c3cc(Cl)ccc32)CC1)c1ccc(F)cc1	–	–	–	–	–	–	–	1.51%	-1.74%	5.43%	-0.00915%	–	–	–	–
COc1ccc(S(=O)(=O)N2C(=O)[C@@](c3ccccc3OC)(N3C[C@H](O)C[C@H]3C(=O)N(C)C)c3cc(Cl)ccc32)c(OC)c1	–	–	–	–	–	–	–	-8.25%	-0.258%	2.68%	–	–	1.21%	–	–
CN1CCN(c2nc3cc(C(F)(F)F)ccc3n3cccc23)CC1	–	–	–	–	–	–	–	16.2%	16.2%	-1.92%	–	-6.12%	0.522%	–	–
CCCSc1nc(N[C@@H]2C[C@H]2c2ccc(F)c(F)c2)c2nnn([C@@H]3C[C@H](OCCO)[C@@H](O)[C@H]3O)c2n1	–	–	–	–	–	–	–	–	11.4%	-9.1%	-6.53%	-6.84%	-5.37%	–	–
CN1C(=O)c2sccc2N(C)c2nc(Nc3ccc(S(N)(=O)=O)cc3)ncc21	-6.76%	5.53%	-7.66%	40.8%	-4.58%	27.4%	9.9%	–	–	–	–	–	–	–	–
CC(C)CNc1nc(N2CCN(CC3CCCOC3)CC2)ncc1C(=O)NCc1ccccc1 (configuration not stated)	–	–	–	–	–	–	–	-0.0955%	-1.08%	2.23%	–	–	-1.17%	–	–
O=c1[nH]c(=O)c2nc3ccccc3nc2[nH]1	–	–	–	–	–	–	–	5.26%	14.4%	4.1%	–	–	–	–	–
CCCCCCOc1cc2n(c(=O)n1)CCc1cc(OC)c(OC)cc1-2	–	–	–	–	–	–	–	-5.45%	-4.39%	1.64%	–	–	–	–	–
CSCC[C@H](NC(=O)[C@H](Cc1ccc(O)cc1)NC(=O)[C@H](CCCCN)NC(=O)[C@@H](N)Cc1c[nH]c2ccccc12)C(=O)N[C@H](C(=O)N[C@H](CCSC)C(N)=O)C(C)C	–	–	–	–	–	–	–	-4.17%	21.2%	13.1%	–	–	-1.7%	–	–
CCc1nn2c(C)cc(C)nc2c1Cc1ccc(-c2nnc(C3CCNCC3)o2)cc1	–	–	–	–	–	–	–	2.26%	-9.8%	6.02%	1.84%	-9.16%	–	–	–
C[C@@H]1CCNC(=O)c2cc3ccc(C(=O)Nc4nc5ccccc5n4CCCN(C)C)cc3n21	-5.96%	5.43%	3.44%	37.8%	1.38%	-2.92%	22.7%	–	–	–	–	–	–	–	–
CN1CCN(c2ccc(/C=C(\C#N)c3ccccc3Br)cc2)CC1	–	–	–	–	–	–	–	-0.489%	–	-2.11%	42.1%	25.6%	4.48%	55.3%	7.83%
CC(C=CC1=C(C)CCCC1(C)C)=CC=CC(C)=CC(=O)O	–	–	–	–	–	–	–	-4.83%	–	–	96.3%	83.6%	-0.014%	57.7%	8.2%

SMILES	inhibition ([1]; Compound Concentration 1.0 uM)	inhibition ([2]; Compound Concentration 1.0 uM)	inhibition ([3]; Compound Concentration 1.0 uM)	inhibition ([4]; Compound Concentration 1.0 uM)	inhibition ([5]; Compound Concentration 1.0 uM)	inhibition ([6]; Compound Concentration 1.0 uM)	inhibition ([7]; Compound Concentration 1.0 uM)	inhibition ([1]; Compound Concentration 10.0 uM)	inhibition [8]	inhibition ([3]; Compound Concentration 10.0 uM)	inhibition ([4]; Compound Concentration 10.0 uM)	inhibition ([2]; Compound Concentration 10.0 uM)	inhibition ([5]; Compound Concentration 10.0 uM)	inhibition ([6]; Compound Concentration 10.0 uM)	inhibition ([7]; Compound Concentration 10.0 uM)
Cc1c(Oc2ccc(F)cc2)c(OC(C)C)nn1-c1ccc(C2CC2)cn1	1.55%	10.1%	-5.44%	52%	0.0471%	59%	8.77%	–	–	–	–	–	–	–	–
CCc1nn(CCCN2CCN(c3cccc(Cl)c3)CC2)c(=O)n1CCOc1ccccc1	–	–	–	–	–	–	–	-4.48%	7.79%	-3.02%	–	–	-5.52%	–	–
Cn1ncc2c(-c3c(-c4ccc(F)cn4)nn4c3COC(C)(C)C4)ccnc21	–	–	–	–	–	–	–	-5.34%	–	–	99.5%	-1.93%	1.59%	50.1%	3.56%
CCOc1ccc(-n2c([C@@H](C)N(Cc3cccnc3)C(=O)Cc3ccc(F)c(C(F)(F)F)c3)nc3ncccc3c2=O)cc1	–	–	–	–	–	–	–	-4.17%	5.52%	6.83%	–	–	-5.43%	–	–
CN(CCN1CCC(OC(=O)Nc2ccccc2-c2ccccc2)CC1)C(=O)c1ccc(CN2CCC(C(N)=O)CC2)cc1	–	–	–	–	–	–	–	-7.72%	15.8%	3.95%	–	-7.57%	–	–	–
CCC[C@H]1CNCc2c1[nH]c(=O)c(C#N)c2N1CCC2(CC1)CC2	–	–	–	–	–	–	–	-0.999%	–	9.71%	100%	2.34%	0.94%	58.5%	6.33%
COc1ccc2cc(OCC3(C(=O)O)CN(C(=O)c4ccc(F)cc4)C3)ccc2c1	-2.53%	-4.88%	0.467%	50.2%	-0.296%	76.6%	4.5%	–	–	–	–	–	–	–	–
O=C(Nc1ccc(Oc2ccc(F)cc2)cc1)N1CCc2ncccc2[C@H]1c1ccc(F)cc1	-5.34%	-3.07%	-9.68%	48.4%	-3.31%	71%	3.93%	–	–	–	–	–	–	–	–
CCC(F)(F)c1cc(N2CCC(S(C)(=O)=O)CC2)nc2sc(C(N)=O)c(N)c12	–	–	–	–	–	–	–	-1.2%	–	-3.46%	39.1%	-8.21%	3.95%	38.2%	8.86%
O=C(NCCN1CCOCC1)c1ccc2c(c1)C(=O)c1ccc(Nc3ccc(F)c(NC(=O)c4ccccc4)c3)cc1CC2	–	–	–	–	–	–	–	-4.66%	0.366%	-5.6%	–	–	–	–	–
O=C(Nc1cnc(Oc2ccc(F)cc2)nc1)N1CCc2ncccc2[C@@H]1c1ccc(F)cc1	–	–	–	–	–	–	–	-3.04%	–	–	49.8%	-7.44%	-4.47%	70.5%	6.94%
CC[C@H](CC(=O)O)n1c(=O)c2ncccc2n(Cc2cn(C)c3cc(C)cc(C)c23)c1=O	–	–	–	–	–	–	–	-5.34%	–	0.164%	46.4%	0.279%	0.131%	56.1%	-8.88%
COc1cccc(CNC(=O)c2nc3scc(COCc4ccc(C(=O)O)cc4)c3c(=O)[nH]2)c1	-2.53%	12.5%	-1.5%	99.5%	-0.0979%	56%	18.6%	–	–	–	–	–	–	–	–
CC(=O)C1=C(C)N(c2cccc(C(F)(F)F)c2)C(=O)N[C@@H]1c1ccc(C#N)nc1	–	–	–	–	–	–	–	3.85%	–	–	45.6%	-1.15%	2.25%	51.4%	-3.19%
Cc1c(Cc2ccc3ccccc3n2)c2cc(F)ccc2n1CC(=O)O	–	–	–	–	–	–	–	30.2%	-6.14%	9.88%	–	–	–	–	–
C[C@@H](c1cccc(C#N)c1)n1cc(Cl)cc(C(N)=O)c1=N	–	–	–	–	–	–	–	12%	–	-4.99%	46.5%	1.26%	3.37%	67%	9.26%
Oc1c(CN2CCN(c3ccccn3)CC2)cc(Cl)c2cccnc12	–	–	–	–	–	–	–	7.5%	39.3%	-9.54%	–	–	–	–	–
Clc1ccc(-c2nc3sccn3c2/C=N/OCc2ccc(Cl)c(Cl)c2)cc1	–	–	–	–	–	–	–	2.57%	–	1.22%	76.8%	1.07%	-2.04%	15.6%	12%
